This is an account of results in US20240287042A1, “NOVEL COMPOUND HAVING INHIBITORY ACTIVITY AGAINST PENDRIN, AND PHARMACEUTICAL USES THEREOF” (UIF (University Industry Foundation), Yonsei University, priority 2021, published 2024).

Molecules are shown by their SMILES.

This test addresses T1, human wild-type (WT)-pendrin (Homo sapiens, UniProt O43511).
T1 construct: expressed in transfected cells
T1 sequence (O43511 1-780): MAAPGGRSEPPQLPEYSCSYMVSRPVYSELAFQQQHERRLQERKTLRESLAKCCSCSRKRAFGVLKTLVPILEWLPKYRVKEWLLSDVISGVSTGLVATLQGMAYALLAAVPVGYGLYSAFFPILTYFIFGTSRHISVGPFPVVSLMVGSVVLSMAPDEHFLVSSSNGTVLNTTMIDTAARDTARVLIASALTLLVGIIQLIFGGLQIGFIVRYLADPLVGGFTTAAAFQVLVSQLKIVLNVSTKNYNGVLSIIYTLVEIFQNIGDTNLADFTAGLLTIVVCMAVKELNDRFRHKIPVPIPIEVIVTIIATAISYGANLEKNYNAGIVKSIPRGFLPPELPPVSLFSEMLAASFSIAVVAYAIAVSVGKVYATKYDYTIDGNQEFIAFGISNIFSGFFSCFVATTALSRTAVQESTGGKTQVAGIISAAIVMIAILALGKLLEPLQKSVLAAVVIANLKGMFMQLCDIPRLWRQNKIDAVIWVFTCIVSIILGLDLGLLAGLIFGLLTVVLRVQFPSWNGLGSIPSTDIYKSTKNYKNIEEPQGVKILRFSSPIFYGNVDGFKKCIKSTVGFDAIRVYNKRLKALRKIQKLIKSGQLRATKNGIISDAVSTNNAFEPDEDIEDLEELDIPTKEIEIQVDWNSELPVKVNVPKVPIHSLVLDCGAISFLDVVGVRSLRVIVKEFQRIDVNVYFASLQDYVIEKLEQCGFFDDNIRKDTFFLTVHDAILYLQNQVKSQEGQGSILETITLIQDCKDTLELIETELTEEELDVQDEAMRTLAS
Briefly: Pendrin Cl−/I− exchange inhibitory activity, YFP fluorescence in CHO-K1 cells. Particulars: CHO-K1; for inhibition at 1 µM: compound concentration 1 μM; for inhibition at 3 µM: compound concentration 3 μM; for inhibition at 10 µM: compound concentration 10 μM; for inhibition at 30 µM: compound concentration 30 μM; for inhibition at 100 µM: compound concentration 100 μM. The format is cell-based. The method, then: Chinese hamster ovary (CHO)-K1 cells were cultured in DMEM medium containing 10% fetal bovine serum (FBS), 100 units/ml of penicillin and 100 μg/ml streptomycin. CHO-K1 cells were stably transfected with pcDNA3.1 encoding the halide sensor YFP-H148Q/I152L/F46L and human wild-type (WT)-pendrin.
(§1) CHO-K1 cells expressing human WT pendrin and YFP-F46L/H148Q/I152L were plated in 96-well microplates at a density of 2×10^4 cells per well, and cultured for 48 hours. Each well of the cell cultured 96-well plate was washed 2 times with 200 μL of PBS, and filled with 50 μL of HEPES buffered solution (140 mM NaCl, 5 mM KCl, 1 mM MgCl2, 1 mM CaCl2), 10 mM glucose and 10 mM HEPES (pH 7.4)). Test compounds (1 μL) were added to a final concentration of 1, 3, 10, 30 and 100 μM. After culturing at 37° C. for 10 minutes, the 96-well plate was located on the FLUOstar Omega Microplate Reader (BMG Labtech, Ortenberg, Germany) for a fluorescence assay. Fluorescence was recorded continuously (400 ms per point) for 1 second (baseline), whereby each well was assayed individually for pendrin-mediated I-influx. Then 50 μL of Na-substituted HEPES buffered solution (replacing NaCl with NaI) was added using a liquid injector at 1 second, and YFP fluorescence was recorded for 5 seconds. The initial iodide influx rate was determined from the initial slope of fluorescence by nonlinear regression, after the injection of iodide.
as §1, with “Chinese hamster ovary (CHO)-K1 cells were cultured in DMEM medium containing 10% fetal bovine serum (FBS), 100 units/ml of penicillin and 100 μg/ml streptomycin. CHO-K1 cells were stably transfected with pcDNA3.1 encoding the halide sensor YFP-H148Q/I152L/F46L and human wild-type (WT)-pendrin. 3-2: Assay of Cl^−/I^− exchange activity CHO-K1” for “CHO-K1”, “50” for “1, 3, 10, 30 and 100”, “Then,” for “Then”, “NaI-substituted” for “Na-substituted”

`Cc1cc(C)c2[nH]c(C(=O)O)c(CC(=O)N3CCN(c4c(C)cccc4C)CC3)c2c1` [YPI-A4947, 3-(2-(4-(2,6-dimethylphenyl)piperazin-1-yl)-2-oxoethyl)-5,7-dimethyl-1H-indole-2-carboxylic acid] displayed an inhibition at 1 µM of under 20%, an inhibition at 3 µM of under 20%, an inhibition at 10 µM of 40.8% and an inhibition at 30 µM of 41.3%. This compound also returned an inhibition at 100 µM of 41.9%.

`O=C(O)c1[nH]c2ccc(Cl)cc2c1CC(=O)N1CCN(c2ccc(Br)cc2)CC1` [YPI-A4846, 3-(2-(4-(4-Bromophenyl)piperazin-1-yl)-2-oxoethyl)-5-chloro-1H-indole-2-carboxylic acid] had an inhibition at 1 µM of under 20%, an inhibition at 3 µM of under 20%, an inhibition at 10 µM of 73.3% and an inhibition at 30 µM of 94.7%.

The compound `Cc1cccc(N2CCN(C(=O)Cc3c(C(=O)O)[nH]c4ccc(Cl)cc34)CC2)c1C` [YPI-A4799, 5-Chloro-3-(2-(4-(2,3-dimethylphenyl)piperazin-1-yl)-2-oxoethyl)-1H-indole-2-carboxylic acid] returned an inhibition at 1 µM of 27.9%, an inhibition at 3 µM of 65.3%, an inhibition at 10 µM of 94.2% and an inhibition at 30 µM of 95.5%. 100 µM produced 97.1% inhibition.

Compound `CC(C)(C)c1ccc(N2CCN(C(=O)Cc3c(C(=O)O)[nH]c4ccc(F)cc34)CC2)cc1` [YPI-A4965, 3-(2-(4-(4-(Tert-butyl)phenyl)piperazin-1-yl)-2-oxoethyl)-5-fluoro-1H-indole-2-carboxylic acid] came in with an inhibition at 1 µM of under 20%, an inhibition at 3 µM of under 20%, an inhibition at 10 µM of under 20% and an inhibition at 30 µM of 62.7%.

Take `COc1ccc(N2CCN(C(=O)Cc3c(C(=O)O)[nH]c4ccc(Cl)cc34)CC2)cc1` [YPI-A4878, 5-Chloro-3-(2-(4-(4-methoxyphenyl)piperazin-1-yl)-2-oxoethyl)-1H-indole-2-carboxylic acid]: the inhibition at 1 µM was under 20%, the inhibition at 3 µM was under 20%, the inhibition at 10 µM was under 20% and the inhibition at 30 µM was under 20%. This compound also displayed an inhibition at 100 µM of 79.4%.

`O=C(O)c1[nH]c2ccc(Cl)cc2c1CC(=O)N1CCN(c2ccccc2C(F)(F)F)CC1` [YPI-A4781, 5-Chloro-3-(2-oxo-2-(4-(2-(trifluoromethyl)phenyl)piperazin-1-yl)ethyl)-1H-indole-2-carboxylic acid]: the inhibition at 1 µM was under 20%, the inhibition at 3 µM is 21.5%, 10 µM produced 71.4% inhibition and the inhibition at 30 µM turned out to be 93.8%. Moreover, 100 µM produced 95.6% inhibition.

With `O=C(O)c1[nH]c2ccc(Cl)cc2c1CC(=O)N1CCN(c2ccc(C(F)(F)F)cc2)CC1` [YPI-A4779, 5-Chloro-3-(2-oxo-2-(4-(4-(trifluoromethyl)phenyl)piperazin-1-yl)ethyl)-1H-indole-2-carboxylic acid], the inhibition at 1 µM is under 20%, the inhibition at 3 µM was under 20%, the inhibition at 10 µM is 66.7% and the inhibition at 30 µM is 92.7%. The inhibition at 100 µM is 95.3%.

The compound `COc1ccccc1N1CCN(C(=O)Cc2c(C(=O)O)[nH]c3ccc(Cl)cc23)CC1` [YPI-A4876, 5-Chloro-3-(2-(4-(2-methoxyphenyl)piperazin-1-yl)-2-oxoethyl)-1H-indole-2-carboxylic acid] gave an inhibition at 1 µM of under 20%, an inhibition at 3 µM of under 20%, an inhibition at 10 µM of under 20% and an inhibition at 30 µM of under 20%. The inhibition at 100 µM amounted to 56.8%.

`Cc1ccc(N2CCN(C(=O)Cc3c(C(=O)O)[nH]c4ccc(Cl)cc34)CC2)c(C)c1` [YPI-A4801, 5-Chloro-3-(2-(4-(2,4-dimethylphenyl)piperazin-1-yl)-2-oxoethyl)-1H-indole-2-carboxylic acid] returned an inhibition at 1 µM of 40.9%, an inhibition at 3 µM of 72.8%, an inhibition at 10 µM of 95.4% and an inhibition at 30 µM of 96.7%. This compound yielded an inhibition at 100 µM of 97.4%.

As for `O=C(O)c1[nH]c2ccc(Cl)cc2c1CC(=O)N1CCN(c2ccccc2Cl)CC1` [YPI-A4803, 5-Chloro-3-(2-(4-(2-chlorophenyl)piperazin-1-yl)-2-oxoethyl)-1H-indole-2-carboxylic acid], the inhibition at 1 µM was under 20%, the inhibition at 3 µM is under 20%, at 10 µM the inhibition was 39.4% and 30 µM produced 73.9% inhibition. Further, at 100 µM the inhibition was 95.7%.

As for `CC(C)(C)OC(=O)N1CCN(C(=O)Cc2c(C(=O)O)[nH]c3ccc(Cl)cc23)CC1` [YPI-A4879, 3-(2-(4-(tert-butoxycarbonyl)piperazin-1-yl)-2-oxoethyl)-5-chloro-1H-indole-2-carboxylic acid], the inhibition at 1 µM was under 20%, the inhibition at 3 µM was under 20%, the inhibition at 10 µM is under 20% and the inhibition at 30 µM is under 20%. Moreover, the inhibition at 100 µM is under 20%.

Turning to `O=C(O)c1[nH]c2ccc(Cl)cc2c1CC(=O)N1CCN(c2ccc(-c3ccccc3)cc2)CC1` [YPI-A4966, 3-(2-(4-([1,1′-biphenyl]-4-yl)piperazin-1-yl)-2-oxoethyl)-5-chloro-1H-indole-2-carboxylic acid], the inhibition at 1 µM is under 20%, the inhibition at 3 µM was under 20%, the inhibition at 10 µM is under 20% and the inhibition at 30 µM was under 20%. In addition, the inhibition at 100 µM is under 20%.

`O=C(O)c1[nH]c2ccc(Cl)cc2c1CC(=O)N1CCN(c2ccc(Cl)cc2)CC1` [YPI-A4843, 5-Chloro-3-(2-(4-(4-chlorophenyl)piperazin-1-yl)-2-oxoethyl)-1H-indole-2-carboxylic acid] returned an inhibition at 1 µM of under 20%, an inhibition at 3 µM of under 20%, an inhibition at 10 µM of 40.3% and an inhibition at 30 µM of 91.4%. This compound also showed an inhibition at 100 µM of 92.1%.

With `Cc1cc(C)c2[nH]c(C(=O)O)c(CC(=O)N3CCN(c4c(C)cccc4Cl)CC3)c2c1` [YPI-A4949, 3-(2-(4-(2-Chloro-6-methylphenyl)piperazin-1-yl)-2-oxoethyl)-5,7-dimethyl-1H-indole-2-carboxylic acid], the inhibition at 1 µM was under 20%, the inhibition at 3 µM turned out to be 39.5%, 10 µM produced 78.9% inhibition and the inhibition at 30 µM was 79.3%. At 100 µM the inhibition was 79.6%.

The compound `Cc1c(Cl)cccc1N1CCN(C(=O)Cc2c(C(=O)O)[nH]c3ccc(Cl)cc23)CC1` [YPI-A4918, 5-Chloro-3-(2-(4-(3-chloro-2-methylphenyl)piperazin-1-yl)-2-oxoethyl)-1H-indole-2-carboxylic acid] had an inhibition at 1 µM of under 20%, an inhibition at 3 µM of 34.7%, an inhibition at 10 µM of 87.5% and an inhibition at 30 µM of 94.8%. Testing at 100 µM gave an inhibition of 95.6%.

In general, inhibition refers to how much of the control response was suppressed.
